Measured values: patent US11192865B2, “Benzosulfonyl compounds” (Vivace Therapeutics, Inc., priority 2017, dated 2021)

Each compound was assayed on 8XTBD luciferase reporter (assay: YAP Reporter Assay). Conditions: Homo sapiens, HEK-293T; HEK293T cells stably transfected with 8XTBD luciferase reporter and pRLTK; 24-hr incubation; starting from 3 μM, 1:3 dilution, 10 points; read-out: Firefly Luciferase IC50.
Assay type: cell-based
Protocol: HEK293T cells stably transfected with 8XTBD luciferase reporter and pRLTK in 384-well plates were treated with the test compounds, starting from 3 μM (final concentration in assay plate), 1:3 dilution, and 10 points in quadruplicates. Post 24-hr incubation with compounds at 37° C. and 5% CO2, cells were lysed and 8XTBD-driven firefly luciferase and control TK-driven renilla luciferase activities were measured using Promega Dual-Luciferase Reporter Assay System.
Reagents: The reagents used for this study are: DMEM: Invitrogen #11960077, Dual-Glo Luciferase Assay System: Promega-E2980, Puromycin Dihydrochloride: Invitrogen-A1113803, 384-well plate: PerkinElmer-6007480, L-GLUTAMINE: Invitrogen-25030164, Hygromycin B: Invitrogen-10687010, and Penicillin-Streptomycin: Merk-TMS-AB2-C
Media: The media used for this assay were: Culture Medium: DMEM+1 ug/mL puromycin+200 ug/mL hygromycin (with 10% FBS+1 mM L-glutamine); and Assay Medium: DMEM (with 10% FBS+1 mM L-glutamine+1×P/S).
Cell Plating: The appropriate media was warmed at 37° C. by water bath: Culture Medium, Assay Medium, 1* D-PBS, 0.05% trypsin-EDTA. The cells were trypsinized after removing all media, then washed with 1* sterile D-PBS and then with 2 ml 0.05% trypsin-EDTA. The cells were then incubated at RT for one minute. Then 10 ml/75 cm2 flask Assay Medium was added to each flask. Using a 10 ml pipette, the cells were then gently resuspended in the media, until the clumps completely disappeared. The cells were then transferred into 50 ml centrifuge tubes and were centrifuged at 800 rpm for 5 mins. The medium was removed and the cells were resuspended with Assay Medium. An aliquot of cells was used to count the cell density (cells/ml). The cell suspension was then diluted with Assay Medium to a concentration of 6×10^4 cells/ml. 50 ul cells suspension was then plated to 384-well plate (PerkinElmer-6007480), 3×10^3 cells/well and the cells were incubated in an incubator at 37° C., 5% CO2.
Compound Treatment: In the afternoon (incubation of the plate with 3-4 hrs), the test compounds were added by Echo, starting from 3 uM (final concentration in the assay plate), 1:3 dilution, 10 points, quadruplicates. The plate was placed at 37° C., 5% CO2 incubator for 24 hrs.
Detection: The Dual-Glo Luciferase Reagent was prepared by transferring the contents of one bottle of Dual-Glo Luciferase Buffer to one bottle of Dual-Glo Luciferase Substrate to create the Dual-Glo Luciferase Reagent. Mixing was performed by inversion until the substrate was thoroughly dissolved. After mixing, the reagent was aliquoted into 15 ml tubes. In the afternoon (24 hrs post compound treatment), the DMEM+ medium in the 384 well plates were aspirated by Microplate Washer.
Measuring firefly luciferase activity: 20 ul Dual-Glo Luciferase Reagent was added to the 384-well plates. The plates were protected from light to prevent interference with the assay. The plates were shaken for 1 min followed centrifuging plates at 1000 rpm for 30 seconds. After waiting at least 10 minutes, the firefly luminescence was measured by Envision.
Measuring renilla luciferase activity: 20 ul Stop-Glo Reagent was added to the 384-well plates. The plates were shaken for 1 min and then centrifuged at 1000 rpm for 30 seconds. After waiting at least 10 minutes, the renilla luminescence was measured by Envision.
Compound IC50 and maximum inhibition on the firefly luciferase and renilla luciferase activities were reported separately.

Row | Compound | IC50
1 | CCn1cncc1-c1cc(S(=O)(=O)NC)ccc1NC1CCCCC1 [Compound 114, 4-(cyclohexylamino)-3-(1-ethyl-1H-imidazol-5-yl)-N-methylbenzenesulfonamide] | > 3000 nM
2 | CNS(=O)(=O)c1ccc(NC2CCCCC2)c(-c2nnn(C3CCCN(S(C)(=O)=O)C3)n2)c1 (centres unmarked) [Compound 62, 4-(cyclohexylamino)-N-methyl-3-(2-(1-(methylsulfonyl)piperidin-3-yl)-2H-tetrazol-5-yl)benzenesulfonamide] | > 3000 nM
3 | CNS(=O)(=O)c1ccc(Nc2cccc(C(F)(F)F)c2)c(-c2nnnn2C)c1 [Compound 97, N-methyl-3-(1-methyl-1H-tetrazol-5-yl)-4-((3-(trifluoromethyl)phenyl)amino)benzenesulfonamide] | > 3000 nM
4 | CNS(=O)(=O)c1ccc(NC2CCCCC2)c(-c2nnn(C3CCCNC3)n2)c1 (centres unmarked) [Compound 74, 4-(cyclohexylamino)-N-methyl-3-(2-(piperidin-3-yl)-2H-tetrazol-5-yl)benzenesulfonamide] | 100 to 1000 nM
5 | CNS(=O)(=O)c1ccc(Nc2ccc(C(F)(F)F)c(Cl)c2)c(-c2cn(C)cn2)c1 [Compound 148, 4-[3-Chloro-4-(trifluoromethyl)anilino]-N-methyl-3-(1-methylimidazol-4-yl)benzenesulfonamide] | ≤ 100 nM
6 | CNS(=O)(=O)c1ccc(NC2CCCCC2)c(-c2nnn(C3CC3)n2)c1 [Compound 71, 4-(cyclohexylamino)-3-(2-cyclopropyl-2H-tetrazol-5-yl)-N-methylbenzene sulfonamide] | > 3000 nM
7 | CNS(=O)(=O)c1ccc(NC2CCCCC2)c(-c2cn(C(C)C)cn2)c1 [Compound 113, 4-(cyclohexylamino)-3-(1-isopropyl-1H-imidazol-4-yl)-N-methylbenzenesulfonamide] | ≤ 100 nM
8 | Cn1cc(-c2cc(S(C)(=O)=O)ccc2NC2CCCCC2)cn1 [Compound 7, N-cyclohexyl-2-(1-methyl-1H-pyrazol-4-yl)-4-(methylsulfonyl)aniline] | > 3000 nM
9 | CNS(=O)(=O)c1ccc(NC2CCCCC2)c(-c2nnnn2C2CCCN(C(=O)OC(C)(C)C)C2)c1 (centres unmarked) [Compound 60, tert-butyl 3-(5-(2-(cyclohexylamino)-5-(N-methylsulfamoyl)phenyl)-1H-tetrazol-1-yl)piperidine-1-carboxylate] | > 3000 nM
10 | CNS(=O)(=O)c1ccc(NC2CCC(F)(F)CC2)c(-c2nnn(C)n2)c1 [Compound 72, 4-((4,4-difluorocyclohexyl)amino)-N-methyl-3-(2-methyl-2H-tetrazol-5-yl)benzenesulfonamide] | ≤ 100 nM
11 | CNS(=O)(=O)c1ccc(NC2CCCCC2)c(-c2nnn(-c3ccccc3)n2)c1 [Compound 34, 4-(cyclohexylamino)-N-methyl-3-(2-phenyl-2H-tetrazol-5-yl)benzenesulfonamide] | > 3000 nM
12 | CNS(=O)(=O)c1ccc(NC2CCCCC2)c(-c2nnn(C3CCN(C(C)C)CC3)n2)c1 [Compound 46, 4-(cyclohexylamino)-3-(2-(1-isopropylpiperidin-4-yl)-2H-tetrazol-5-yl)-N-methylbenzenesulfonamide] | > 3000 nM
13 | CNc1ccnc(-c2cc(S(=O)(=O)NC)ccc2NC2CCCCC2)c1 [Compound 88, 4-(cyclohexylamino)-N-methyl-3-(4-(methylamino)pyridin-2-yl)benzenesulfonamide] | ≤ 100 nM
14 | Cc1nc(-c2cc(S(C)(=O)=O)ccc2NC2CCCCC2)no1 [Compound 3, N-cyclohexyl-2-(5-methyl-1,2,4-oxadiazol-3-yl)-4-(methylsulfonyl)aniline] | ≤ 100 nM
15 | CNS(=O)(=O)c1ccc(NC2CCCCC2)c(-c2nnn(C3CCCC3)n2)c1 [Compound 18, 4-(cyclohexylamino)-3-(2-cyclopentyl-2H-tetrazol-5-yl)-N-methylbenzenesulfonamide] | 100 to 1000 nM
16 | CNS(=O)(=O)c1ccc(NC2CCCCC2)c(-c2ccccn2)c1 [Compound 64, 4-(cyclohexylamino)-N-methyl-3-(pyridin-2-yl)benzenesulfonamide] | ≤ 100 nM
17 | CNS(=O)(=O)c1ccc(NC2CCCCC2)c(-c2nnn(C3CCNCC3)n2)c1 [Compound 30, 4-(cyclohexylamino)-N-methyl-3-(2-(piperidin-4-yl)-2H-tetrazol-5-yl)benzenesulfonamide] | > 3000 nM
18 | CNS(=O)(=O)c1ccc(NC2CCCCC2)c(-c2n[nH]c(C)n2)c1 [Compound 66, 4-(cyclohexylamino)-N-methyl-3-(5-methyl-1H-1,2,4-triazol-3-yl)benzenesulfonamide] | 100 to 1000 nM
19 | CNS(=O)(=O)c1ccc(Nc2ccc(C(F)(F)F)cc2)c(-c2nnnn2C)c1 [Compound 96, N-methyl-3-(1-methyl-1H-tetrazol-5-yl)-4-((4-(trifluoromethyl)phenyl)amino)benzenesulfonamide] | > 3000 nM
20 | CNS(=O)(=O)c1ccc(Nc2cccc(F)c2)c(-c2nnn(C)n2)c1 [Compound 117, 4-((3-fluorophenyl)amino)-N-methyl-3-(2-methyl-2H-tetrazol-5-yl)benzenesulfonamide] | 100 to 1000 nM
21 | CNS(=O)(=O)c1ccc(NC2CCCCC2)c(-c2nnn(CC(C)C)n2)c1 [Compound 27, 4-(cyclohexylamino)-3-(2-isobutyl-2H-tetrazol-5-yl)-N-methylbenzenesulfonamide] | 100 to 1000 nM
22 | CNS(=O)(=O)c1ccc(NC2CCCCC2)c(-c2nnn(C3CCCN(C(C)C)C3)n2)c1 (centres unmarked) [Compound 61, 4-(cyclohexylamino)-3-(2-(1-isopropylpiperidin-3-yl)-2H-tetrazol-5-yl)-N-methylbenzenesulfonamide] | > 3000 nM
23 | CCCCn1nnc(-c2cc(S(=O)(=O)NC)ccc2NC2CCCCC2)n1 [Compound 21, 3-(2-butyltetrazol-5-yl)-4-(cyclohexylamino)-N-methyl-benzenesulfonamide] | ≤ 100 nM
24 | Cn1nnc(-c2cc(S(C)(=O)=O)ccc2NC2CCCCC2)n1 [Compound 5, N-cyclohexyl-2-(2-methyl-2H-tetrazol-5-yl)-4-(methylsulfonyl)aniline] | 100 to 1000 nM
25 | CNS(=O)(=O)c1ccc(NC2CCCCC2)c(-c2nnn(C3CCCN(C(=O)OC(C)(C)C)C3)n2)c1 (centres unmarked) [Compound 59, tert-butyl 3-(5-(2-(cyclohexylamino)-5-(N-methylsulfamoyl)phenyl)-2H-tetrazol-2-yl)piperidine-1-carboxylate] | 100 to 1000 nM
26 | CNS(=O)(=O)c1ccc(NC2CCCCC2)c(-c2nnn(C3CCNC3)n2)c1 (centres unmarked) [Compound 35, 4-(cyclohexylamino)-N-methyl-3-(2-(pyrrolidin-3-yl)-2H-tetrazol-5-yl)benzenesulfonamide] | > 3000 nM
27 | CNS(=O)(=O)c1ccc(NC2CCCCC2)c(-c2nnn(C3CCN(c4ccccc4)C3)n2)c1 (centres unmarked) [Compound 37, 4-(cyclohexylamino)-N-methyl-3-(2-(1-phenylpyrrolidin-3-yl)-2H-tetrazol-5-yl)benzenesulfonamide] | > 3000 nM
28 | CNS(=O)(=O)c1ccc(Nc2ccc(OC(F)(F)F)cc2)c(-c2nnnn2C)c1 [Compound 99, N-methyl-3-(1-methyl-1H-tetrazol-5-yl)-4-((4-(trifluoromethoxy)phenyl)amino)benzenesulfonamide] | > 3000 nM
29 | CCCn1nnc(-c2cc(S(=O)(=O)NC)ccc2NC2CCCCC2)n1 [Compound 15, 4-(cyclohexylamino)-N-methyl-3-(2-propyl-2H-tetrazol-5-yl)benzenesulfonamide] | ≤ 100 nM
